Source: patent US6214876A, “Indene-1-acetamide sPLA2 inhibitors” (Eli Lilly and Company, priority 1994, dated 2001)

Target: T1, recombinant human secreted phospholipase A2 (Homo sapiens, UniProt P14555)
T1 sequence (P14555 21-144): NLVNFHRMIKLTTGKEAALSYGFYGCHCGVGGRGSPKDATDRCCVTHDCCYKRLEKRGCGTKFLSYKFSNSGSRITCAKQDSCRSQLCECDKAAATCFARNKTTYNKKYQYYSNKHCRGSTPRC
Test: PLA2 Chromogenic Assay (human secreted phospholipase A2 inhibition)
Type: biochemical
Details: racemic diheptanoyl thio-PC 1 mM, pH 7.5, 40° C., 30 minutes, 405 nanometers, triplicate, read-out: Compound IC50
Text: The following chromogenic assay procedure was used to identify and evaluate inhibitors of recombinant human secreted phospholipase A2. The assay described herein has been adapted for high volume screening using 96 well microtiter plates. A general description of this assay method is found in the article, "Analysis of Human Synovial Fluid Phospholipase A2 on Short Chain Phosphatidylcholine-Mixed Micelles: Development of a Spectrophotometric Assay Suitable for a Microtiterplate Reader", by Laure J. Reynolds, Lori L. Hughes, and Edward A Dennis, Analytical Biochemistry,204, pp. 190-197, 1992 (the disclosure of which is incorporated herein by reference): […]
A measured volume of racemic dipheptanoyl thio PC supplied in chloroform at a concentration of 100 mg/ml is taken to dryness and redissolved in 10 millimolar TRITON X-100™ nonionic detergent aqueous solution. […]
5. Read absorbance of wells at 405 nanometers with an automatic plate reader.
All compounds were tested in triplicate. […] Compounds initially found to be active were reassayed to confirm their activity and, if sufficiently active, IC50 values were determined. […] In all cases, % inhibition measured at 405 nanometers generated by enzyme reactions containing inhibitors relative to the uninhibited control reactions was determined. […] IC50 were determined by plotting log concentration versus inhibition values in the range from 10-90% inhibition.

| IC50 [nM] | Structure (SMILES) |
| --- | --- |
| 910 | CC1=C(CC(N)=O)c2cc(OCCCC(=O)O)ccc2/C1=C\c1ccccc1 [Compound 14a, 4-[3(z)-benzylidene-1-carbamoylmethyl-2-methyl-3H-inden-6-yloxy]-butanoic acid] |
| 420 | CC1=C(CC(N)=O)c2c(OCC(=O)O)cccc2/C1=C\c1ccccc1 [Compound 14b, [3(z)-benzylidene-1-carbamoylmethyl-2-methyl-3H-inden-7-yloxy]-acetic acid] |
